Like-named read-outs stand apart in the source and are kept apart here.
Experiments:
[1] = system: 60-week old Hy-Line W-36 White Leghorn hens; details: day 22 to day 28
Protocol: Experiment 1. […] The photoperiod was 17 hours of light per day (0330 hours to 2030 hours).

turkey breeder hens = assay: Experiment 7: molting of turkey breeder hens with dietary L-thyroxine, porcine thyroid powder or thyroactive iodinated casein, 10 days; type: in vivo; details: 10, 20, or 40 mg T4/kg diet
Excerpt: Experiment 7. Molting of Turkey Breeder Hens with Dietary L-Thyroxine, PorcineThyroid Powder, or Thyroactive Iodinated Casein. Turkey breeder hens were molted with various dietary thyroxine treatments at Diamond K Research, […]. (Jun. 20-Jul. 1, 2005).

[2] = system: 102-week old Hy-Line W-36 White Leghorn hens
Protocol: Experiment 2. […] The photoperiod was 17 hours of light per day (0330 hours to 2030 hours).
The objective was to use T4 to humanely induce molting in hens that are continuously provided with ad libitum access to palatable feed meeting or exceeding all National Research Council (1994) standards. Developing a fully efficacious yet affordable molting protocol was predicated on determining the minimum effective level for T4 supplementation. Factors that potentially may affect the required level of T4 supplementation include: (1) uncertainty regarding the efficiency of T4 absorption by the gastrointestinal tract, (2) the possibility that continuous dietary ingestion of T4 could trigger substantially different biological responses when compared single daily injections, and (3) the likelihood that daily T4 intake would diminish in parallel with molt-related reductions in feed intake associated with cessation in egg production. A spontaneous and voluntary loss of appetite (anorexia) commonly accompanies seasonal molting and broodiness in a variety of avian species (Berry, 2003; Webster, 2003). Accordingly, the responses of hens to diets containing 10, 20, and 40 mg T4/kg, to bracket the anticipated range of T4 needed to cause an effective molt, were determined.

turkey hens = details: cited from earlier work
[3] = 40 mg T4/kg test diet for 10 days

N[C@@H](Cc1cc(I)c(Oc2cc(I)c(O)c(I)c2)c(I)c1)C(=O)O [L-thyroxine, 3,5,3′,5′-tetraiodothyronine]
Feed Intake ([1]; 2,000 mcg/kg BW i.m. 3 d): 20.2 g/hen/day | Feed Intake ([1]; 4,000 mcg/kg BW i.m. 3 d): 11.7 g/hen/day | Effectiveness at regressing reproductive tracts (turkey breeder hens): not as effective as porcine thyroid powder | Time to onset of molt after T4 feeding was initiated ([2]; 10 mg T4 kg Group, 10 days on test diets, half of the hens): 11 days | Feed consumption change from days 2-4 (% FCC) ([2]; 10 mg/kg feed 6 d, Day 11-14): −19.7% | Feed consumption (FC) ([2]; 10 mg/kg feed 6 d, Days 2-4 (pre-treatment)): 101.3 g/hen/d | Feed consumption (FC) ([2]; 10 mg/kg feed 6 d, Days 5-7): 60.0 g/hen/d | Feed consumption change from days 2-4 (% FCC) ([2]; 10 mg/kg feed 6 d, Days 5-7): −40.8% | Feed consumption (FC) ([2]; 10 mg/kg feed 6 d, Days 8-10): 35.3 g/hen/d | Feed consumption change from days 2-4 (% FCC) ([2]; 10 mg/kg feed 6 d, Days 8-10): −65.2% | Feed consumption (FC) ([2]; 10 mg/kg feed 10 d, Day 11-14): 47.3 g/hen/d | Feed consumption change from days 2-4 (% FCC) ([2]; 10 mg/kg feed 10 d, Day 11-14): −43.7% | Feed consumption (FC) ([2]; 10 mg/kg feed 10 d, Days 2-4 (pre-treatment)): 84.0 g/hen/d | Feed consumption (FC) ([2]; 10 mg/kg feed 10 d, Days 5-7): 56.0 g/hen/d | Feed consumption change from days 2-4 (% FCC) ([2]; 10 mg/kg feed 10 d, Days 5-7): −33.3% | Feed consumption (FC) ([2]; 10 mg/kg feed 10 d, Days 8-10): 33.7 g/hen/d | Feed consumption change from days 2-4 (% FCC) ([2]; 10 mg/kg feed 10 d, Days 8-10): −59.9% | Feed consumption (FC) ([2]; 20 mg/kg feed 6 d, Day 11-14): 73.7 g/hen/d | Feed consumption change from days 2-4 (% FCC) ([2]; 20 mg/kg feed 6 d, Day 11-14): −28.4% | Feed consumption (FC) ([2]; 20 mg/kg feed 6 d, Days 2-4 (pre-treatment)): 103.0 g/hen/d | Feed consumption (FC) ([2]; 20 mg/kg feed 6 d, Days 5-7): 42.0 g/hen/d | Feed consumption change from days 2-4 (% FCC) ([2]; 20 mg/kg feed 6 d, Days 5-7): −59.2% | Feed consumption (FC) ([2]; 20 mg/kg feed 6 d, Days 8-10): 33.7 g/hen/d | Feed consumption change from days 2-4 (% FCC) ([2]; 20 mg/kg feed 6 d, Days 8-10): −67.3% | Feed consumption (FC) ([2]; 20 mg/kg feed 10 d, Day 11-14): 32.7 g/hen/d | Feed consumption change from days 2-4 (% FCC) ([2]; 20 mg/kg feed 10 d, Day 11-14): −72.9% | Feed consumption (FC) ([2]; 20 mg/kg feed 10 d, Days 2-4 (pre-treatment)): 120.7 g/hen/d | Feed consumption (FC) ([2]; 20 mg/kg feed 10 d, Days 5-7): 54.7 g/hen/d | Feed consumption change from days 2-4 (% FCC) ([2]; 20 mg/kg feed 10 d, Days 5-7): −54.7% | Feed consumption (FC) ([2]; 20 mg/kg feed 10 d, Days 8-10): 30.0 g/hen/d | Feed consumption change from days 2-4 (% FCC) ([2]; 20 mg/kg feed 10 d, Days 8-10): −75.1% | Hen-day egg production ([2]; 20 mg/kg feed 10 d, day 4 (pre-treatment)): 75% | Hen-day egg production ([2]; 20 mg/kg feed 10 d, day 30): 25% | Loss of initial body weight [2, 3]: approximately 21% | Reduction of feed intake [2, 3]: approximately 85% | Feed consumption (FC) ([2]; 40 mg/kg feed 6 d, Day 11-14): 46.7 g/hen/d | Feed consumption change from days 2-4 (% FCC) ([2]; 40 mg/kg feed 6 d, Day 11-14): −52.5% | Feed consumption (FC) ([2]; 40 mg/kg feed 6 d, Days 2-4 (pre-treatment)): 98.3 g/hen/d | Feed consumption (FC) ([2]; 40 mg/kg feed 6 d, Days 5-7): 36.7 g/hen/d | Feed consumption change from days 2-4 (% FCC) ([2]; 40 mg/kg feed 6 d, Days 5-7): −62.7% | Feed consumption (FC) ([2]; 40 mg/kg feed 6 d, Days 8-10): 13.7 g/hen/d | Feed consumption change from days 2-4 (% FCC) ([2]; 40 mg/kg feed 6 d, Days 8-10): −86.1% | Hen-day egg production ([2]; 40 mg/kg feed 6 d, day 20): 25% | Hen-day egg production ([2]; 40 mg/kg feed 6 d, day 22): 25% | Hen-day egg production ([2]; 40 mg/kg feed 6 d, day 24): 50% | Feed consumption (FC) ([2]; 40 mg/kg feed 10 d, Day 11-14): 19.3 g/hen/d | Feed consumption change from days 2-4 (% FCC) ([2]; 40 mg/kg feed 10 d, Day 11-14): −83.4% | Feed consumption (FC) ([2]; 40 mg/kg feed 10 d, Days 2-4 (pre-treatment)): 116.3 g/hen/d | Feed consumption (FC) ([2]; 40 mg/kg feed 10 d, Days 5-7): 37.3 g/hen/d | Feed consumption change from days 2-4 (% FCC) ([2]; 40 mg/kg feed 10 d, Days 5-7): −67.9% | Feed consumption (FC) ([2]; 40 mg/kg feed 10 d, Days 8-10): 22.0 g/hen/d | Feed consumption change from days 2-4 (% FCC) ([2]; 40 mg/kg feed 10 d, Days 8-10): −81.1% | Hen-day egg production ([2]; 40 mg/kg feed 10 d, day 12): 0% | Hen-day egg production ([2]; 40 mg/kg feed 10 d, day 14): 0% | Hen-day egg production ([2]; 40 mg/kg feed 10 d, day 16): 0% | Hen-day egg production ([2]; 40 mg/kg feed 10 d, day 18): 0% | Hen-day egg production ([2]; 40 mg/kg feed 10 d, day 20): 0% | Mortality ([2]; 10, 20, 40 mg T4/kg feed, 6 or 10 days): No mortality occurred in any of the Groups | Time within which egg production was consistently reduced ([2]; 20 and 40 mg T4/kg feed): ≤ 4 days | Time out of egg production after treatment (turkey hens; 2 mg/hen/day i.m. (Lien and Siopes 1993)): 4 weeks | Egg laying (turkey hens; 3 mcg/mL water (600 to 900 mcg/bird/day), 20 to 25 week old turkey females (Bilezikian et al. 1980)): rarely lay eggs
